Experimental data from ChEMBL document CHEMBL1155767, “Three new sesquiterpene glycosides from Dendrobium nobile with immunomodulatory activity” (2001).

Columns and labels:
Type in all cases: functional
Lymphocyte [1] = assay: Immunomodulatory activity in LPS-stimulated mouse lymphocytes assessed as proliferative optical density at 1 uM after 48 hrs by MTT assay (Rvb=0.45+/-0.01)
Lymphocyte [2] = assay: Immunomodulatory activity in LPS-stimulated mouse lymphocytes assessed as proliferative optical density at 10 uM after 48 hrs by MTT assay (Rvb=0.45+/-0.01)
Lymphocyte [3] = assay: Immunomodulatory activity in concanavalin A-stimulated mouse lymphocytes assessed as proliferative optical density at 1 uM after 48 hrs by MTT assay (Rvb=0.47+/-0.01)
Lymphocyte [4] = assay: Immunomodulatory activity in concanavalin A-stimulated mouse lymphocytes assessed as proliferative optical density at 10 uM after 48 hrs by MTT assay (Rvb=0.47+/-0.01)
Lymphocyte [5] = assay: Immunomodulatory activity in concanavalin A-stimulated mouse lymphocytes assessed as proliferative optical density at 0.1 uM after 48 hrs by MTT assay (Rvb=0.47+/-0.01)
Lymphocyte [6] = assay: Immunomodulatory activity in LPS-stimulated mouse lymphocytes assessed as proliferative optical density at 0.1 uM after 48 hrs by MTT assay (Rvb=0.45+/-0.01)
Lymphocyte [7] = assay: Immunomodulatory activity in LPS-stimulated mouse lymphocytes assessed as proliferative optical density at 10 uM after 48 hrs by MTT assay (Rvb=0.56+/-0.03)
Lymphocyte [8] = assay: Immunomodulatory activity in LPS-stimulated mouse lymphocytes assessed as proliferative optical density at 0.1 uM after 48 hrs by MTT assay (Rvb=0.56+/-0.03)
Lymphocyte [9] = assay: Immunomodulatory activity in concanavalin A-stimulated mouse lymphocytes assessed as proliferative optical density at 1 uM after 48 hrs by MTT assay (Rvb=0.80+/-0.02)
Lymphocyte [10] = assay: Immunomodulatory activity in concanavalin A-stimulated mouse lymphocytes assessed as proliferative optical density at 10 uM after 48 hrs by MTT assay (Rvb=0.80+/-0.02)
Lymphocyte [11] = assay: Immunomodulatory activity in concanavalin A-stimulated mouse lymphocytes assessed as proliferative optical density at 0.1 uM after 48 hrs by MTT assay (Rvb=0.80+/-0.02)
Lymphocyte [12] = assay: Immunomodulatory activity in LPS-stimulated mouse lymphocytes assessed as proliferative optical density at 1 uM after 48 hrs by MTT assay (Rvb=0.56+/-0.03)

CC(C)[C@H]1CC[C@]2(C)[C@@H](CO[C@@H]3O[C@H](CO)[C@@H](O)[C@H](O)[C@H]3O)CC[C@@H]2[C@@H]1CO[C@@H]1O[C@H](CO)[C@@H](O)[C@H](O)[C@H]1O [DENDRONOBILOSIDE A]
OD (Lymphocyte [1]): 0.5 | OD (Lymphocyte [2]): 0.56 | OD (Lymphocyte [3]): 0.53 | OD (Lymphocyte [4]): 0.6 | OD (Lymphocyte [5]): 0.46 | OD (Lymphocyte [6]): 0.49

CC(C)[C@H]1CC[C@@]2(C)[C@H](CC[C@]2(O)CO)[C@@H]1CO[C@@H]1O[C@H](CO)[C@@H](O)[C@H](O)[C@H]1O [DENDRONOBILOSIDE B]
OD (Lymphocyte [7]): 0.57 | OD (Lymphocyte [8]): 0.54 | OD (Lymphocyte [9]): 0.68 | OD (Lymphocyte [10]): 0.71 | OD (Lymphocyte [11]): 0.68 | OD (Lymphocyte [12]): 0.51

C[C@@H]1CC[C@H]2[C@@H]1[C@H]1[C@@H](CC[C@@]2(O)CO[C@@H]2O[C@H](CO)[C@@H](O)[C@H](O)[C@H]2O)[C@@]1(C)CO [DENDROSIDE A]
OD (Lymphocyte [1]): 0.52 | OD (Lymphocyte [2]): 0.45 | OD (Lymphocyte [3]): 0.62 | OD (Lymphocyte [4]): 0.5 | OD (Lymphocyte [5]): 0.64 | OD (Lymphocyte [6]): 0.45
